The NIST ThermoML archive (doi:10.1021/acs.jced.7b00898)

Tests used:
[1] = xn = mol fraction of the nth substance listed; conditions: 100 kPa, Liquid, Vibrating tube method, x2 = 0
[2] = for mass density / electrical conductivity / viscosity: 100 kPa, Liquid; for mass density: Vibrating tube method; for surface tension liquid-gas: pt plate; for electrical conductivity: Alternating current cell with electrodes; for viscosity: Falling or rolling sphere viscometry

CC#N [acetonitrile] + C[n+]1ccn(CCCC#N)c1.F[B-](F)(F)F
[1]
Conditions	mass density [kg/m3]
288.15 K	787.33
293.15 K	781.96
298.15 K	776.61
303.15 K	771.18
308.15 K	765.73
313.15 K	760.25
318.15 K	754.72
323.15 K	749.16

CC#N [acetonitrile]
[2]
Conditions	mass density [kg/m3]
288.15 K	787.33
293.15 K	781.96
298.15 K	776.61
303.15 K	771.18
308.15 K	765.73
313.15 K	760.25
318.15 K	754.72
323.15 K	749.16

C[n+]1ccn(CCCC#N)c1.F[B-](F)(F)F [1-butyronitrile-3-methylimidazolium tetrafluoroborate]
[2]
Conditions	electrical conductivity [S/m]	mass density [kg/m3]	surface tension liquid-gas [mN/m]	viscosity [mPa·s]
288.15 K	0.058	1316.07	49.1	590.6
293.15 K	0.085	1312.33	48.7	417.9
298.15 K	0.123	1308.61	48.4	302.6
303.15 K	0.171	1304.81	48.1	223.3
308.15 K	0.231	1301.05	47.7	169.9
313.15 K	0.305	1297.32	47.4	128.7
318.15 K	0.393	1293.59	47.1	100.6
323.15 K	0.498	1289.86	46.8	79.82
